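Results reflect a 48-hour exposure of cells in 96-well plates to compound at five concentrations. Definition used: TGI = concentration required for complete inhibition of growth.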 Some results are limits rather than exact numbers.

Among the test systems are SNB-75 CNS; SNB-19 CNS; NCI-H226 lung; COLO 205 colon; HT29 colon; SF-268 CNS; A549 NSCLC; OVCAR-8 ovarian; ACHN renal; SK-MEL-2 melanoma; SF-539 CNS; MDA-MB-435; SK-OV-3 ovarian; T-47D breast; OVCAR-3 ovarian; OVCAR-4 ovarian; NCI/ADR-RES ovarian; 786-0 renal; NCI-H23 lung; SF-295 CNS.
Holding throughout (test): NCI tumour cell line growth inhibition, 48 h

As for `COc1ccc(Br)c2c1CC(C(=O)O)CC2` (stereo not given), the TGI with SNB-75 CNS, in the assay on SNB-19 CNS, with NCI-H226 lung, in the assay on COLO 205 colon, with HT29 colon and with SF-268 CNS was above 100 µM in each case. The TGI with A549 NSCLC, in the assay with OVCAR-8 ovarian, with ACHN renal, in the assay on SK-MEL-2 melanoma, in the assay on SF-539 CNS and in the assay on MDA-MB-435 was above 100 µM in each case. For the same compound, the TGI in the assay with SK-OV-3 ovarian, with T-47D breast, in the assay on OVCAR-3 ovarian, with OVCAR-4 ovarian, in the assay on NCI/ADR-RES ovarian and in the assay with 786-0 renal was above 100 µM in each case. The TGI in the assay with NCI-H23 lung and in the assay on SF-295 CNS was above 100 µM each time.

Consider `O=C(O)C1C(C(=O)O)C2C(=O)C=CC1N2Cc1ccccc1` (stereo not given), for which the TGI with SNB-75 CNS stood at 6.97 µM; in the assay with SNB-19 CNS, 18.2 µM; in the assay with NCI-H226 lung it was 35.8 µM; in the assay on COLO 205 colon, 22.1 µM; in the assay with HT29 colon, 12.6 µM; in the assay on SF-268 CNS it was 11.3 µM. For the same compound, the TGI in the assay with A549 NSCLC is 22.4 µM; in the assay on OVCAR-8 ovarian, above 100 µM; in the assay with ACHN renal it was 14.2 µM; in the assay with SK-MEL-2 melanoma it was 24.1 µM; in the assay on SF-539 CNS, 7.56 µM; with MDA-MB-435 it was 13.4 µM. The TGI with SK-OV-3 ovarian was determined as 17 µM; in the assay with T-47D breast it was 15.2 µM; with OVCAR-3 ovarian, 10.1 µM; with OVCAR-4 ovarian, 16.3 µM; with NCI/ADR-RES ovarian, 7.58 µM; in the assay with 786-0 renal, 11.7 µM. Moreover, the results for the TGI with NCI-H23 lung and with SF-295 CNS were 7.71 µM and 23.4 µM, respectively.

For the compound `CCOC(=O)c1ccc(C(=O)OCC)n1-c1cc2cc(c1)CSCc1cc(cc(-n3c(C(=O)OCC)ccc3C(=O)OCC)c1)CSC2`, the TGI in the assay on SNB-75 CNS, with SNB-19 CNS, in the assay with NCI-H226 lung, with COLO 205 colon, with HT29 colon and in the assay on SF-268 CNS was above 10 µM each time. Moreover, the TGI with A549 NSCLC, with OVCAR-8 ovarian, in the assay with ACHN renal, in the assay on SK-MEL-2 melanoma, in the assay on SF-539 CNS and with MDA-MB-435 was above 10 µM in each case. Also, the TGI in the assay with SK-OV-3 ovarian, in the assay on T-47D breast, in the assay on OVCAR-3 ovarian, in the assay on OVCAR-4 ovarian, in the assay on NCI/ADR-RES ovarian and with 786-0 renal was above 10 µM throughout. Moreover, the TGI in the assay on NCI-H23 lung and in the assay on SF-295 CNS was above 10 µM each time.

On to `O=C1NC(N2CCOCC2)=N/C1=C\c1cccs1`, for which the TGI in the assay with SNB-75 CNS, in the assay on SNB-19 CNS, with NCI-H226 lung, in the assay on COLO 205 colon, with HT29 colon and in the assay with SF-268 CNS was above 100 µM in each case. For the same compound, the TGI with A549 NSCLC, with OVCAR-8 ovarian, in the assay with ACHN renal, in the assay on SK-MEL-2 melanoma, with SF-539 CNS and with MDA-MB-435 was above 100 µM each time. Also, the TGI in the assay on SK-OV-3 ovarian, in the assay with T-47D breast, in the assay with OVCAR-3 ovarian, in the assay with OVCAR-4 ovarian, in the assay on NCI/ADR-RES ovarian and in the assay on 786-0 renal was above 100 µM in each case. Further, the TGI in the assay on NCI-H23 lung and in the assay on SF-295 CNS was above 100 µM each time.

Turning to `O=C(O)C1CC2C3CCC2C1C3=O` (stereo not given), the TGI with SNB-75 CNS, with SNB-19 CNS, with NCI-H226 lung, in the assay on COLO 205 colon, in the assay with HT29 colon and in the assay with SF-268 CNS was above 100 µM throughout. The TGI with A549 NSCLC, in the assay on OVCAR-8 ovarian, in the assay with ACHN renal, in the assay with SK-MEL-2 melanoma, with SF-539 CNS and in the assay with MDA-MB-435 was above 100 µM throughout. In addition, the TGI in the assay with SK-OV-3 ovarian, in the assay with T-47D breast, in the assay with OVCAR-3 ovarian, in the assay with OVCAR-4 ovarian, in the assay on NCI/ADR-RES ovarian and in the assay on 786-0 renal was above 100 µM each time. Further, the TGI in the assay with NCI-H23 lung and in the assay on SF-295 CNS was above 100 µM in each case.

As for `CC(C)=CCOc1cc(NC(=S)c2ccoc2C)ccc1Cl`, the TGI in the assay on SNB-75 CNS was 63.9 µM; in the assay with SNB-19 CNS, above 100 µM; with NCI-H226 lung, above 100 µM; in the assay with COLO 205 colon, above 100 µM; in the assay with HT29 colon, above 100 µM; in the assay with SF-268 CNS, above 100 µM. Further, the TGI in the assay on A549 NSCLC, with OVCAR-8 ovarian, with ACHN renal, in the assay with SK-MEL-2 melanoma, with SF-539 CNS and in the assay with MDA-MB-435 was above 100 µM each time. For the same compound, the TGI in the assay with SK-OV-3 ovarian, with T-47D breast, in the assay with OVCAR-3 ovarian, in the assay with OVCAR-4 ovarian, in the assay on NCI/ADR-RES ovarian and with 786-0 renal was above 100 µM each time. Besides, the TGI in the assay with NCI-H23 lung and with SF-295 CNS was above 100 µM each time.

For the origin of these results see PubChem BioAssay (NCI).
